11 molecules from US20100267561A1, “HERBICIDAL PYRIDAZINONE DERIVATIVES” (priority 2007, published 2010) can be followed below.

Common to all, as to format: in vivo
In assay [1] the test system is quackgrass (Elytrigia repens). The experiment in a line: Test E pre-/postemergence plant response. To be noted: Postemergence, scale 0 to 100. The method, boiled down:
(§1)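 Ratings of 0 (no effect) through 100 (complete control) came from visual evaluation against untreated plants after a 14- to 21-day greenhouse period. Compound in a non-phytotoxic solvent/surfactant mixture was applied preemergence to seeds and postemergence to plants at the 1- to 4-leaf stage.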

Assay [2] concerns common sowthistle (Sonchus oleraceous). In words: Test E pre-/postemergence plant response. To be noted: Postemergence, scale 0 to 100. In short, it runs like this:
as §1

The subject of assay [3] is goosegrass (Eleusine indica). The experiment in a line: Test E pre-/postemergence plant response. To be noted: Postemergence, scale 0 to 100. The method, boiled down: as §1
The subject of assay [4] is common groundsel (Senecio vulgaris). The experiment in a line: Test E pre-/postemergence plant response. The settings on record: Postemergence, scale 0 to 100. In short, it runs like this:
as §1

Assay [5] relates to prickly sida (Sida spinosa). In words: Test E pre-/postemergence plant response. To be noted: Postemergence, scale 0 to 100. The method, boiled down: as §1
Assay [6] deals with large crabgrass (Digitaria sanguinalis). In words: Test E pre-/postemergence plant response. To be noted: Postemergence, scale 0 to 100. In short, it runs like this: as §1
Assay [7] relates to Virginia (V.) dayflower (Commelina virginica). The experiment in a line: Test E pre-/postemergence plant response. The settings on record: Postemergence, scale 0 to 100. The method, boiled down: as §1
The subject of assay [8] is naked crabgrass (Digitaria nuda). In words: Test E pre-/postemergence plant response. To be noted: Postemergence, scale 0 to 100. The method, boiled down: as §1
Assay [9] has as its system canarygrass (Phalaris minor). The experiment in a line: Test A pre-/postemergence plant response. The method, boiled down:
(§2)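 Scores reflect visual plant injury relative to untreated controls on a 0–100 scale, recorded approximately 10 days after simultaneous preemergence soil spraying and postemergence spraying of one- to two-leaf seedlings grown in loam–sand.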

Assay [10] has as its system blackgrass (Alopecurus myosuroides). The experiment in a line: Test A pre-/postemergence plant response. The method, boiled down: as §2
The mark [11] stands for this setting: Postemergence, 31 g ai/ha, 0 to 100 scale, 0 no effect, 100 complete control.
The mark [12] stands for this setting: Postemergence, 125 g ai/ha, 0 to 100 scale, 0 no effect, 100 complete control.
The mark [13] stands for this setting: Preemergence, 31 g ai/ha, 0 to 100 scale, 0 is no effect, 100 is complete control.
Setting [14] is: Preemergence, 125 g ai/ha, 0 to 100 scale (0 no effect, 100 complete control).
The mark [15] stands for this setting: Postemergence, 500 g ai/ha, 0 to 100 scale, 0 no effect, 100 complete control.
Where [16] appears, read: Preemergence, 500 g ai/ha, 0 to 100 scale (0 no effect, 100 complete control).

Turning to `Cc1cc(-c2ccc(Cl)cc2)nn1-c1c(OC(=O)c2cccc(Cl)c2)cnn(C)c1=O` [Compound 32], the “Plant response rating, Quackgrass” value in assay [1] (8 g ai/ha), in [1] (16 g ai/ha), in assay [1] (31 g ai/ha) and in assay [1] (62 g ai/ha) was 0 each time. Further, the “Plant response rating, Sowthistle” value in [2] (8 g ai/ha), in assay [2] (16 g ai/ha), in assay [2] (31 g ai/ha) and in assay [2] (62 g ai/ha) was 0 each time. For the same molecule, the “Plant response rating, Goosegrass” value worked out at 35 in assay [3] (8 g ai/ha), 35 in assay [3] (16 g ai/ha), 60 in assay [3] (31 g ai/ha) and 80 in [3] (62 g ai/ha). The “Plant response rating, Groundsel” value in assay [4] (8 g ai/ha), in assay [4] (16 g ai/ha), in [4] (31 g ai/ha) and in assay [4] (62 g ai/ha) was 0 throughout. For the same molecule, the “Plant response rating, Prickly Sida” value in [5] (8 g ai/ha), in assay [5] (16 g ai/ha), in assay [5] (31 g ai/ha) and in assay [5] (62 g ai/ha) was 0 in each case. The “Plant response rating, Crabgrass, Large” value was 35 in assay [6] (8 g ai/ha), 75 in assay [6] (16 g ai/ha), 75 in [6] (31 g ai/ha) and 80 in [6] (62 g ai/ha). Moreover, the “Plant response rating, Dayflower, V.” value in assay [7] (8 g ai/ha), in assay [7] (16 g ai/ha), in assay [7] (31 g ai/ha) and in [7] (62 g ai/ha) was 0 throughout. For the same molecule, the “Plant response rating, Crabgrass, Naked” value turned out to be 60 in [8] (8 g ai/ha), 80 in [8] (31 g ai/ha) and 90 in assay [8] (62 g ai/ha).
Take `CCCc1cc(-c2ccc(C(F)(F)F)cc2)nn1-c1c(O)cnn(C)c1=O` [Compound 72]: the “Plant response rating, Canarygrass” value in assay [9] (setting [11]) was 40; in assay [9] (setting [12]), 100; in assay [9] (setting [13]) it was 50; in assay [9] (setting [14]), 80. Moreover, the “Plant response rating, Blackgrass” value in assay [10] (setting [11]) is listed as 80; in [10] (setting [12]), 100; in assay [10] (setting [13]), 70; in assay [10] (setting [14]) it was 100.
In the case of `CCc1cc(-c2ccc(Br)cc2)nn1-c1c(O)cnn(CC(F)(F)F)c1=O` [Compound 73], the “Plant response rating, Canarygrass” value was 20 in [9] (setting [11]), 100 in assay [9] (setting [12]) and 30 in assay [9] (setting [13]). The “Plant response rating, Blackgrass” value in [10] (setting [11]) was 90; in assay [10] (setting [12]), 90; in assay [10] (setting [13]), 60; in [10] (setting [14]), 90.
For the molecule `CCc1cc(-c2ccc(Br)cc2)nn1-c1c(O)c(C)nn(C)c1=O` [Compound 74], the “Plant response rating, Canarygrass” value in [9] (setting [11]) came to 100; in assay [9] (setting [12]), 100; in [9] (setting [13]), 80; in assay [9] (setting [14]) it was 100. In addition, the “Plant response rating, Blackgrass” value in assay [10] (setting [11]), in assay [10] (setting [12]), in assay [10] (setting [13]) and in [10] (setting [14]) was 100 throughout.
Turning to `CCCc1cc(-c2ccc(Cl)cc2)nn1-c1c(O)cnn(C)c1=O` [Compound 76], the “Plant response rating, Canarygrass” value in assay [9] (setting [11]) is listed as 40; in [9] (setting [12]), 100; in [9] (setting [13]) it was 30; in assay [9] (setting [14]), 70. In addition, the “Plant response rating, Blackgrass” value in [10] (setting [11]) stood at 90; in assay [10] (setting [12]), 100; in [10] (setting [14]), 90.
Regarding `Cc1cc(-c2ccc(Br)cc2)nn1-c1c(O)cnn(C2CCCCO2)c1=O` (centres unmarked) [Compound 77, 4-[3-(4-bromophenyl)-5-methyl-1H-pyrazol-1-yl]-5-hydroxy-2-(tetrahydro-2H-pyran-2-yl)-3(2H)-pyridazinone], the “Plant response rating, Canarygrass” value came to 60 in assay [9] (setting [12]), 100 in [9] (setting [15]) and 90 in [9] (setting [16]). The “Plant response rating, Blackgrass” value in assay [10] (setting [12]) is 100; in assay [10] (setting [15]), 100; in [10] (setting [14]), 80; in assay [10] (setting [16]) it was 100.
`Cc1nn(C)c(=O)c(-c2nc(-c3ccc(Cl)cc3)sc2C)c1O` [Compound 79, 4-[2-(4-chlorophenyl)-5-methyl-4-thiazolyl]-5-hydroxy-2,6-dimethyl-3(2H)-pyridazinone]: the “Plant response rating, Canarygrass” value in assay [9] (setting [11]) is 40; in [9] (setting [12]), 90; in assay [9] (setting [13]) it was 0; in assay [9] (setting [14]), 100. The “Plant response rating, Blackgrass” value came to 60 in [10] (setting [11]), 100 in assay [10] (setting [12]), 80 in [10] (setting [13]) and 100 in assay [10] (setting [14]).
On to `COc1nn(C)c(=O)c(-n2nc(-c3ccc(Br)cc3)cc2C)c1O` [Compound 82], for which the “Plant response rating, Canarygrass” value is given as 100 in [9] (setting [11]), 100 in [9] (setting [12]), 20 in assay [9] (setting [13]) and 100 in [9] (setting [14]). Further, the “Plant response rating, Blackgrass” value stood at 100 in assay [10] (setting [11]), 100 in assay [10] (setting [12]), 70 in assay [10] (setting [13]) and 100 in assay [10] (setting [14]).
In the case of `CCc1c(C)c(-c2ccc(Br)cc2)nn1-c1c(O)cnn(C)c1=O` [Compound 83], the “Plant response rating, Canarygrass” value is given as 70 in assay [9] (setting [11]), 100 in assay [9] (setting [12]) and 90 in assay [9] (setting [14]). In addition, the “Plant response rating, Blackgrass” value came out at 90 in [10] (setting [11]), 100 in [10] (setting [12]), 20 in assay [10] (setting [13]) and 100 in assay [10] (setting [14]).
Consider `Cc1cn(-c2ccc(C(F)(F)F)cc2)nc1-c1c(O)cnn(C)c1=O` [Compound 85, 5-hydroxy-2-methyl-4-[4-methyl-1-[4-(trifluoromethyl)phenyl]-1H-pyrazol-3-yl]-3(2H)-pyridazinone], for which the “Plant response rating, Canarygrass” value in assay [9] (setting [11]) is recorded as 0; in assay [9] (setting [12]), 20; in [9] (setting [13]), 40; in [9] (setting [14]), 70. The “Plant response rating, Blackgrass” value in assay [10] (setting [11]) worked out at 0; in [10] (setting [12]) it was 40; in assay [10] (setting [13]) it was 0; in [10] (setting [14]) it was 40.
For `Cn1ncc(O)c(-c2nn(-c3ccc(C(F)(F)F)cc3)cc2Br)c1=O` [Compound 87, 4-[4-bromo-1-[4-(trifluoromethyl)phenyl]-1H-pyrazol-3-yl]-5-hydroxy-2-methyl-3(2H)-pyridazinone], the “Plant response rating, Canarygrass” value amounted to 10 in assay [9] (setting [11]), 70 in assay [9] (setting [12]), 0 in assay [9] (setting [13]) and 90 in assay [9] (setting [14]). In addition, the “Plant response rating, Blackgrass” value is 30 in assay [10] (setting [11]), 80 in [10] (setting [12]), 30 in assay [10] (setting [13]) and 90 in assay [10] (setting [14]).
